We go through 27 compounds from patent publication US9598440B2, “Inhibitors of IRAK4 activity” (MERCK SHARP & DOHME CORP., priority 2012, dated 2017).

In the assay the target is IRAK4 (Homo sapiens (Human), UniProt Q9NWZ3). Description: Determination of IRAK4 kinase activity (IMAP fluorescence polarization, phosphorylation of fluorescent peptide substrate). The assay is classed as biochemical. The conditions noted are these: 0.5 nM GST tagged IRAK4, 100 nM peptide substrate RP7030, 100 μM ATP, 30 minutes at 25° C. In outline: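 GST-tagged IRAK4 (0.5 nM) phosphorylated 100 nM fluorescent peptide substrate with 100 µM ATP in Tris-HCl pH 7.2, 1 mM MgCl2, 1 mM DTT, 0.01% Tween 20 for 30 min at 25 °C. Phosphorylation read by IMAP nanoparticle binding as fluorescence polarization increase.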
Chain of IRAK4 (Q9NWZ3 whole entry): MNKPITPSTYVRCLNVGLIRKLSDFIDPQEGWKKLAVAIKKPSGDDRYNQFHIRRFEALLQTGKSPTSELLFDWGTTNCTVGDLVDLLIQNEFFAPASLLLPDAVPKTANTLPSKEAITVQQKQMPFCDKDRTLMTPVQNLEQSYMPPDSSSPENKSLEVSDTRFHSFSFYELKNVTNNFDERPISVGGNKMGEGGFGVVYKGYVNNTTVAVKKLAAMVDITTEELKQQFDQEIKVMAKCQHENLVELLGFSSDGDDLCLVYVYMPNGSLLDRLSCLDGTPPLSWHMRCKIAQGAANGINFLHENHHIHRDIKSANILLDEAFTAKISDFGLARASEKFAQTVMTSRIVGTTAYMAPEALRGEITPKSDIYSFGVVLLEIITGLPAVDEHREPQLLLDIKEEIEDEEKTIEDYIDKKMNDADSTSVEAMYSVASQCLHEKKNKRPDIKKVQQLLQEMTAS
The term IC50 denotes the concentration that inhibits the measured activity by half. Lower therefore signals higher potency. On to `COc1cc(Nc2ncc(-c3ccc4ccccc4n3)c(N[C@@H]3C[C@H](CO)[C@@H](O)[C@H]3O)n2)ccn1` [Example 58, 6-(((1R,2S,3R,4R)-2,3-dihydroxy-4-(hydroxymethyl)cyclopentyl)amino)-2-((2-methoxypyridin-4-yl)amino)-5-(quinolin-2-yl)pyrimidine], for which inhibition was half-maximal at 8 nM (IC50). That is a single-digit nanomolar value.

Take `Cc1cc(Nc2ncc(-c3ccc4ccccc4n3)c(N[C@@H]3C[C@H](CO)[C@@H](O)[C@H]3O)n2)cc(C)n1` [Example 59, 6-(((1R,2S,3R,4R)-2,3-dihydroxy-4-(hydroxymethyl)cyclopentyl)amino)-2-((2,6-dimethylpyridin-4-yl)amino)-5-(quinolin-2-yl)pyrimidine]: the half-inhibitory concentration (IC50) turned out to be 1 nM.

The compound `OC[C@H]1C[C@@H](Nc2nc(NC3CC3)ncc2-c2ccc3ccccc3n2)[C@H](O)[C@@H]1O` [Example 60, 2-(cyclopropylamino)-6-(((1R,2S,3R,4R)-2,3-dihydroxy-4-(hydroxymethyl)cyclopentyl)amino)-5-(quinolin-2-yl)pyrimidine] registered a concentration for half-maximal inhibition (IC50) of 1470 nM.

For the compound `CC(C)Oc1cc(Nc2ncc(-c3ccc4ccccc4n3)c(N[C@@H]3C[C@H](CO)[C@@H](O)[C@H]3O)n2)ccn1` [Example 61, 6-(((1R,2S,3R,4R)-2,3-dihydroxy-4-(hydroxymethyl)cyclopentyl)amino)-2-((2-isopropoxypyridin-4-yl)amino)-5-(quinolin-2-yl)pyrimidine], the 50% inhibitory concentration (IC50) worked out at 27 nM.

Compound `CC(C)n1ccc(Nc2ncc(-c3ccc4ccccc4n3)c(N[C@@H]3C[C@H](CO)[C@@H](O)[C@H]3O)n2)cc1=O` [Example 62, 6-(((1R,2S,3R,4R)-2,3-dihydroxy-4-(hydroxymethyl)cyclopentyl)amino)-2-((1-isopropyl-2-oxo-1,2-dihydropyridin-4-yl)amino)-5-(quinolin-2-yl)pyrimidine] returned an IC50 of 154 nM.

In turn, `OC[C@H]1C[C@@H](Nc2nc(Nc3ccnc(OC4CC4)c3)ncc2-c2ccc3ccccc3n2)[C@H](O)[C@@H]1O` [Example 63, 2-((2-cyclopropoxypyridin-4-yl)amino)-6-(((1R,2S,3R,4R)-2,3-dihydroxy-4-(hydroxymethyl)cyclopentyl)amino)-5-(quinolin-2-yl)pyrimidine] came in with an IC50 of 43 nM. This IC50 is about 3.6-fold lower than that of the compound before.

With `Nc1ncc(-c2nccs2)c(N[C@@H]2C[C@H](CO)[C@@H](O)[C@H]2O)n1` [Example 64, 2-amino-6-(((1R,2S,3R,4R)-2,3-dihydroxy-4-(hydroxymethyl)cyclopentyl)amino)-5-(thiazol-2-yl)pyrimidine], the IC50 came to 241 nM. This IC50 is about 5.6-fold higher than that of the compound before.

As for `OC[C@H]1C[C@@H](Nc2nc(Nc3ccncc3)ncc2-c2nccs2)[C@H](O)[C@@H]1O` [Example 65, 6-(((1R,2S,3R,4R)-2,3-dihydroxy-4-(hydroxymethyl)cyclopentyl)amino)-2-(pyridin-4-ylamino)-5-(thiazol-2-yl)pyrimidine], half-maximal inhibition (IC50) was put at 260 nM.

Consider `CN(C)c1ccc(Nc2ncc(-c3nc4cnccc4s3)c(N[C@@H]3C[C@H](CO)[C@@H](O)[C@H]3O)n2)cc1` [Example 66, (1R,2S,3R,5R)-3-((2-((4-(dimethylamino)phenyl)amino)-5-(thiazolo[4,5-c]pyridin-2-yl)pyrimidin-4-yl)amino)-5-(hydroxymethyl)cyclopentane-1,2-diol], for which the midpoint of inhibition, the IC50, lay at 4 nM.

Compound `Cc1cc(Nc2ncc(-c3nc4cnccc4s3)c(N[C@@H]3C[C@H](CO)[C@@H](O)[C@H]3O)n2)cc(C)n1` [Example 67, (1R,2S,3R,5R)-3-((2-((2,6-dimethylpyridin-4-yl)amino)-5-(thiazolo[4,5-c]pyridin-2-yl)pyrimidin-4-yl)amino)-5-(hydroxymethyl)cyclopentane-1,2-diol] registered an IC50 of 0.5 nM.

`Cc1cc(Nc2ncc(-c3nc4ccncc4s3)c(N[C@@H]3C[C@H](CO)[C@@H](O)[C@H]3O)n2)cc(C)n1` [Example 68, (1R,2S,3R,5R)-3-((2-((2,6-dimethylpyridin-4-yl)amino)-5-(thiazolo[5,4-c]pyridin-2-yl)pyrimidin-4-yl)amino)-5-(hydroxymethyl)cyclopentane-1,2-diol] came in with an IC50 of 0.2 nM. This IC50 is about 2.5-fold lower than that of the compound before.

As to `Cc1cc(Nc2ncc(-c3nc4cnccc4s3)c(N[C@@H]3C[C@H](CO)[C@@H](O)[C@H]3O)n2)ccn1` [Example 69, (1S,2R,3R,5R)-3-(hydroxymethyl)-5-((2-((2-methylpyridin-4-yl)amino)-5-(thiazolo[4,5-c]pyridin-2-yl)pyrimidin-4-yl)amino)cyclopentane-1,2-diol], it took 3 nM to reach half-maximal inhibition (IC50). Against the preceding compound, the IC50 is about 15-fold higher.

The compound `COc1cc(Nc2ncc(-c3nc4cnccc4s3)c(N[C@@H]3C[C@H](CO)[C@@H](O)[C@H]3O)n2)ccn1` [Example 71, 6-(((1R,2S,3R,4R)-2,3-dihydroxy-4-(hydroxymethyl)cyclopentyl)amino)-2-((2-methoxypyridin-4-yl)amino)-5-(thiazolo[4,5-c]pyridin-2-yl)pyrimidine] gave a concentration for half-maximal inhibition (IC50) of 7 nM.

For `CN(C)c1cccc(Nc2ncc(-c3nc4cnccc4s3)c(N[C@@H]3C[C@H](CO)[C@@H](O)[C@H]3O)n2)c1` [Example 73, 6-(((1R,2S,3R,4R)-2,3-dihydroxy-4-(hydroxymethyl)cyclopentyl)amino)-2-((3-(dimethylamino)phenyl)amino)-5-(thiazolo[4,5-c]pyridin-2-yl)pyrimidine], the concentration for half-maximal inhibition (IC50) came to 12 nM.

As to `OC[C@H]1C[C@@H](Nc2nc(Nc3cncnc3)ncc2-c2nc3ccncc3s2)[C@H](O)[C@@H]1O` [Example 74, 6-(((1R,2S,3R,4R)-2,3-dihydroxy-4-(hydroxymethyl)cyclopentyl)amino)-2-(pyrimidin-5-ylamino)-5-(thiazolo[5,4-c]pyridin-2-yl)pyrimidine], half-maximal inhibition (IC50) required 6 nM.

`COc1cc(Nc2ncc(-c3nc4ccncc4s3)c(N[C@@H]3C[C@H](CO)[C@@H](O)[C@H]3O)n2)ccn1` [Example 75, 6-(((1R,2S,3R,4R)-2,3-dihydroxy-4-(hydroxymethyl)cyclopentyl)amino)-2-((2-methoxypyridin-4-yl)amino)-5-(thiazolo[5,4-c]pyridin-2-yl)pyrimidine] came in with an IC50 of 2 nM.

For `OC[C@H]1C[C@@H](Nc2nc(NC3CCC3)ncc2-c2nc3cnccc3s2)[C@H](O)[C@@H]1O` [Example 76, 2-(cyclobutylamino)-6-(((1R,2S,3R,4R)-2,3-dihydroxy-4-(hydroxymethyl)cyclopentyl)amino)-5-(thiazolo[4,5-c]pyridin-2-yl)pyrimidine], the IC50 is 560 nM.

In turn, `Cc1cc(Nc2ncc(-c3nc4ccncc4s3)c(N[C@@H]3C[C@H](CO)[C@@H](O)[C@H]3O)n2)ccn1` [Example 77, 6-(((1R,2S,3R,4R)-2,3-dihydroxy-4-(hydroxymethyl)cyclopentyl)amino)-2-((2-methylpyridin-4-yl)amino)-5-(thiazolo[5,4-c]pyridin-2-yl)pyrimidine] returned an IC50 of 8 nM.

Compound `OC[C@H]1C[C@@H](Nc2nc(Nc3cccnc3)ncc2-c2nc3ccncc3s2)[C@H](O)[C@@H]1O` [Example 78, 6-(((1R,2S,3R,4R)-2,3-dihydroxy-4-(hydroxymethyl)cyclopentyl)amino)-2-(pyridin-3-ylamino)-5-(thiazolo[5,4-c]pyridin-2-yl)pyrimidine] came in with a 50% inhibitory concentration (IC50) of 13 nM.

In turn, `Cc1cc(Nc2ncc(-c3nc(-c4ccccc4)cs3)c(N[C@@H]3C[C@H](CO)[C@@H](O)[C@H]3O)n2)ccn1` [Example 79, 6-(((1R,2S,3R,4R)-2,3-dihydroxy-4-(hydroxymethyl)cyclopentyl)amino)-2-((2-methylpyridin-4-yl)amino)-5-(4-phenylthiazol-2-yl)pyrimidine] displayed an IC50 of 8 nM. Against the preceding compound, the IC50 is about 1.6-fold lower.

Consider `COc1cc(Nc2ncc(-c3nc(-c4ccccc4)cs3)c(N[C@@H]3C[C@H](CO)[C@@H](O)[C@H]3O)n2)ccn1` [Example 80, 6-(((1R,2S,3R,4R)-2,3-dihydroxy-4-(hydroxymethyl)cyclopentyl)amino)-2-((2-methoxypyridin-4-yl)amino)-5-(4-phenylthiazol-2-yl)pyrimidine], for which inhibition was half-maximal at 98 nM (IC50).

In turn, `OC[C@H]1C[C@@H](Nc2nc(Nc3cncnc3)ncc2-c2nc(-c3ccccc3)cs2)[C@H](O)[C@@H]1O` [Example 81, 6-(((1R,2S,3R,4R)-2,3-dihydroxy-4-(hydroxymethyl)cyclopentyl)amino)-5-(4-phenylthiazol-2-yl)-2-(pyrimidin-5-ylamino)pyrimidine] yielded a half-maximal inhibitory concentration (IC50) of 94 nM. The IC50 values of the last two compounds are within 1.5-fold of each other.

For `OC[C@H]1C[C@@H](Nc2nc(Nc3cccnc3)ncc2-c2nc(-c3ccccc3)cs2)[C@H](O)[C@@H]1O` [Example 82, 6-(((1R,2S,3R,4R)-2,3-dihydroxy-4-(hydroxymethyl)cyclopentyl)amino)-5-(4-phenyithiazol-2-yl)-2-(pyridin-3-ylamino)pyrimidine], the half-maximal inhibitory concentration (IC50) stood at 3210 nM.

On to `Nc1ncc(-c2nc3cccnc3s2)c(N[C@@H]2C[C@H](CO)[C@@H](O)[C@H]2O)n1` [Example 83, (1R,2S,3R,5R)-3-((2-amino-5-(thiazolo[5,4-b]pyridin-2-yl)pyrimidin-4-yl)amino)-5-(hydroxymethyl)cyclopentane-1,2-diol], for which half-maximal inhibition (IC50) was put at 1.03 nM.

For the compound `Cc1nc(Nc2ccnc(F)c2)nc(N[C@@H]2C[C@H](CO)[C@@H](O)[C@H]2O)c1-c1nc2ccccc2s1` [Example 86, (1R,2S,3R,5R)-3-((5-(benzo[d]thiazol-2-yl)-2-((2-fluoropyridin-4-yl)amino)-6-methylpyrimidin-4-yl)amino)-5-(hydroxymethyl)cyclopentane-1,2-diol], inhibition was half-maximal at 430 nM (IC50).

With `Cc1cc(Nc2nc(C)c(-c3nc4ccccc4s3)c(N[C@@H]3C[C@H](CO)[C@@H](O)[C@H]3O)n2)cc(C)n1` [Example 87, (1R,2S,3R,5R)-3-((5-(benzo[d]thiazol-2-yl)-2-((2,6-dimethylpyridin-4-yl)amino)-6-methylpyrimidin-4-yl)amino)-5-(hydroxymethyl)cyclopentane-1,2-diol], the half-inhibitory concentration (IC50) came to 119 nM.

In turn, `Cc1nc(Nc2ccc(Cl)cc2)nc(N[C@@H]2C[C@H](CO)[C@@H](O)[C@H]2O)c1-c1nc2ccccc2s1` [Example 88, (1R,2S,3R,5R)-3-((5-(benzo[d]thiazol-2-yl)-2-((4-chlorophenyl)amino)-6-methylpyrimidin-4-yl)amino)-5-(hydroxymethyl)cyclopentane-1,2-diol] displayed a concentration for half-maximal inhibition (IC50) of 6370 nM.
